Assay: xn = mol fraction of the nth substance listed
Conditions: 298.15 K, Liquid

CCCCCCCCC [nonane] + C1CCCCC1
Conditions	mass density [kg/m3]
100 kPa, x2 = 0	713.6
100 kPa, x2 = 0.09303	716.6
100 kPa, x2 = 0.2009	720.5
100 kPa, x2 = 0.3051	724.8
100 kPa, x2 = 0.417	729.9
100 kPa, x2 = 0.512	734.6
100 kPa, x2 = 0.5996	739.8
100 kPa, x2 = 0.7052	746.6
100 kPa, x2 = 0.7993	753.9
100 kPa, x2 = 0.9039	763.1
101 kPa, x2 = 0	713.86
101 kPa, x2 = 0.1022	717.19
101 kPa, x2 = 0.1548	719.05
101 kPa, x2 = 0.2009	720.75
101 kPa, x2 = 0.2591	723.01
101 kPa, x2 = 0.3306	726.01
101 kPa, x2 = 0.4003	729.17
101 kPa, x2 = 0.4596	732.07
101 kPa, x2 = 0.5321	735.92
101 kPa, x2 = 0.612	740.61
101 kPa, x2 = 0.6649	744.01
101 kPa, x2 = 0.7224	748.02
101 kPa, x2 = 0.8047	754.4
101 kPa, x2 = 0.8686	759.98
101 kPa, x2 = 0.9405	767.1
2130 kPa, x2 = 0	715.2
2130 kPa, x2 = 0.09303	718.2
2130 kPa, x2 = 0.2009	722.2
2130 kPa, x2 = 0.3051	726.5
2130 kPa, x2 = 0.417	731.5
2130 kPa, x2 = 0.512	736.2
2130 kPa, x2 = 0.5996	741.4
2130 kPa, x2 = 0.7052	748.2
2130 kPa, x2 = 0.7993	755.6
2130 kPa, x2 = 0.9039	764.8
4150 kPa, x2 = 0	716.8
4150 kPa, x2 = 0.09303	719.8
4150 kPa, x2 = 0.2009	723.8
4150 kPa, x2 = 0.3051	728.1
4150 kPa, x2 = 0.417	733.1
4150 kPa, x2 = 0.512	737.8
4150 kPa, x2 = 0.5996	743.1
4150 kPa, x2 = 0.7052	749.9
4150 kPa, x2 = 0.7993	757.2
4150 kPa, x2 = 0.9039	766.5
6180 kPa, x2 = 0	718.4
6180 kPa, x2 = 0.09303	721.4
6180 kPa, x2 = 0.2009	725.4
6180 kPa, x2 = 0.3051	729.7
6180 kPa, x2 = 0.417	734.7
6180 kPa, x2 = 0.512	739.5
6180 kPa, x2 = 0.5996	744.7
6180 kPa, x2 = 0.7052	751.5
6180 kPa, x2 = 0.7993	758.8
6180 kPa, x2 = 0.9039	768.1
8210 kPa, x2 = 0	719.9
8210 kPa, x2 = 0.09303	722.9
8210 kPa, x2 = 0.2009	726.9
8210 kPa, x2 = 0.3051	731.2
8210 kPa, x2 = 0.417	736.3
8210 kPa, x2 = 0.512	741
8210 kPa, x2 = 0.5996	746.3
8210 kPa, x2 = 0.7052	753.1
8210 kPa, x2 = 0.7993	760.4
8210 kPa, x2 = 0.9039	769.7
10230 kPa, x2 = 0	721.4
10230 kPa, x2 = 0.09303	724.4
10230 kPa, x2 = 0.2009	728.5
10230 kPa, x2 = 0.3051	732.8
10230 kPa, x2 = 0.417	737.9
10230 kPa, x2 = 0.512	742.5
10230 kPa, x2 = 0.5996	747.9
10230 kPa, x2 = 0.7052	754.7
10230 kPa, x2 = 0.7993	762
10230 kPa, x2 = 0.9039	771.3
11250 kPa, x2 = 0	722.2
11250 kPa, x2 = 0.09303	725.2
11250 kPa, x2 = 0.2009	729.2
11250 kPa, x2 = 0.3051	733.5
11250 kPa, x2 = 0.417	738.6
11250 kPa, x2 = 0.512	743.3
11250 kPa, x2 = 0.5996	748.6
11250 kPa, x2 = 0.7052	755.5
11250 kPa, x2 = 0.7993	762.8
11250 kPa, x2 = 0.9039	772.1
12260 kPa, x2 = 0	722.9
12260 kPa, x2 = 0.09303	725.9
12260 kPa, x2 = 0.2009	730
12260 kPa, x2 = 0.3051	734.3
12260 kPa, x2 = 0.417	739.4
12260 kPa, x2 = 0.512	744.1
12260 kPa, x2 = 0.5996	749.4
12260 kPa, x2 = 0.7052	756.2
12260 kPa, x2 = 0.7993	763.5
12260 kPa, x2 = 0.9039	772.9
14290 kPa, x2 = 0	724.4
14290 kPa, x2 = 0.09303	727.4
14290 kPa, x2 = 0.2009	731.5
14290 kPa, x2 = 0.3051	735.8
14290 kPa, x2 = 0.417	740.9
14290 kPa, x2 = 0.512	745.5
14290 kPa, x2 = 0.5996	750.9
14290 kPa, x2 = 0.7052	757.8
14290 kPa, x2 = 0.7993	765.1
14290 kPa, x2 = 0.9039	774.4
16310 kPa, x2 = 0	725.8
16310 kPa, x2 = 0.09303	728.8
16310 kPa, x2 = 0.2009	732.9
16310 kPa, x2 = 0.3051	737.2
16310 kPa, x2 = 0.417	742.3
16310 kPa, x2 = 0.512	747
16310 kPa, x2 = 0.5996	752.3
16310 kPa, x2 = 0.7052	759.2
16310 kPa, x2 = 0.7993	766.5
16310 kPa, x2 = 0.9039	775.9
18340 kPa, x2 = 0	727.2
18340 kPa, x2 = 0.09303	730.2
18340 kPa, x2 = 0.2009	734.3
18340 kPa, x2 = 0.3051	738.6
18340 kPa, x2 = 0.417	743.7
18340 kPa, x2 = 0.512	748.4
18340 kPa, x2 = 0.5996	753.8
18340 kPa, x2 = 0.7052	760.7
18340 kPa, x2 = 0.7993	768
18340 kPa, x2 = 0.9039	777.3
20370 kPa, x2 = 0	728.6
20370 kPa, x2 = 0.09303	731.6
20370 kPa, x2 = 0.2009	735.7
20370 kPa, x2 = 0.3051	740
20370 kPa, x2 = 0.417	745.1
20370 kPa, x2 = 0.512	749.8
20370 kPa, x2 = 0.5996	755.2
20370 kPa, x2 = 0.7052	762.1
20370 kPa, x2 = 0.7993	769.4
20370 kPa, x2 = 0.9039	778.8
22390 kPa, x2 = 0	730
22390 kPa, x2 = 0.09303	732.9
22390 kPa, x2 = 0.2009	737.1
22390 kPa, x2 = 0.3051	741.4
22390 kPa, x2 = 0.417	746.5
22390 kPa, x2 = 0.512	751.3
22390 kPa, x2 = 0.5996	756.6
22390 kPa, x2 = 0.7052	763.5
22390 kPa, x2 = 0.7993	770.8
22390 kPa, x2 = 0.9039	780.2
24420 kPa, x2 = 0	731.3
24420 kPa, x2 = 0.09303	734.2
24420 kPa, x2 = 0.2009	738.4
24420 kPa, x2 = 0.3051	742.7
24420 kPa, x2 = 0.417	747.9
24420 kPa, x2 = 0.512	752.6
24420 kPa, x2 = 0.5996	758
24420 kPa, x2 = 0.7052	764.9
24420 kPa, x2 = 0.7993	772.2
24420 kPa, x2 = 0.9039	781.6
26450 kPa, x2 = 0	732.6
26450 kPa, x2 = 0.09303	735.6
26450 kPa, x2 = 0.2009	739.8
26450 kPa, x2 = 0.3051	744.1
26450 kPa, x2 = 0.417	749.2
26450 kPa, x2 = 0.512	753.9
26450 kPa, x2 = 0.5996	759.3
26450 kPa, x2 = 0.7052	766.3
26450 kPa, x2 = 0.7993	773.5
26450 kPa, x2 = 0.9039	783
28470 kPa, x2 = 0	733.9
28470 kPa, x2 = 0.09303	736.9
28470 kPa, x2 = 0.2009	741.1
28470 kPa, x2 = 0.3051	745.3
28470 kPa, x2 = 0.417	750.5
28470 kPa, x2 = 0.512	755.2
28470 kPa, x2 = 0.5996	760.6
28470 kPa, x2 = 0.7052	767.6
28470 kPa, x2 = 0.7993	774.9
28470 kPa, x2 = 0.9039	784.3
29490 kPa, x2 = 0	734.5
29490 kPa, x2 = 0.09303	737.5
29490 kPa, x2 = 0.2009	741.7
29490 kPa, x2 = 0.3051	746
29490 kPa, x2 = 0.417	751.1
29490 kPa, x2 = 0.512	755.8
29490 kPa, x2 = 0.5996	761.3
29490 kPa, x2 = 0.7052	768.2
29490 kPa, x2 = 0.7993	775.5
29490 kPa, x2 = 0.9039	785
30500 kPa, x2 = 0	735.1
30500 kPa, x2 = 0.09303	738.1
30500 kPa, x2 = 0.2009	742.3
30500 kPa, x2 = 0.3051	746.6
30500 kPa, x2 = 0.417	751.8
30500 kPa, x2 = 0.512	756.5
30500 kPa, x2 = 0.5996	761.9
30500 kPa, x2 = 0.7052	768.9
30500 kPa, x2 = 0.7993	776.2
30500 kPa, x2 = 0.9039	785.7
32530 kPa, x2 = 0	736.4
32530 kPa, x2 = 0.09303	739.4
32530 kPa, x2 = 0.2009	743.6
32530 kPa, x2 = 0.3051	747.9
32530 kPa, x2 = 0.417	753
32530 kPa, x2 = 0.512	757.7
32530 kPa, x2 = 0.5996	763.2
32530 kPa, x2 = 0.7052	770.2
32530 kPa, x2 = 0.7993	777.5
32530 kPa, x2 = 0.9039	787
34550 kPa, x2 = 0	737.6
34550 kPa, x2 = 0.09303	740.7
34550 kPa, x2 = 0.2009	744.8
34550 kPa, x2 = 0.3051	749.1
34550 kPa, x2 = 0.417	754.3
34550 kPa, x2 = 0.512	759
34550 kPa, x2 = 0.5996	764.5
34550 kPa, x2 = 0.7052	771.5
34550 kPa, x2 = 0.7993	778.7
34550 kPa, x2 = 0.9039	788.2
36580 kPa, x2 = 0	738.8
36580 kPa, x2 = 0.09303	741.8
36580 kPa, x2 = 0.2009	746
36580 kPa, x2 = 0.3051	750.3
36580 kPa, x2 = 0.417	755.5
36580 kPa, x2 = 0.512	760.2
36580 kPa, x2 = 0.5996	765.7
36580 kPa, x2 = 0.7052	772.7
36580 kPa, x2 = 0.7993	780
36580 kPa, x2 = 0.9039	789.5
38600 kPa, x2 = 0	740
38600 kPa, x2 = 0.09303	743
38600 kPa, x2 = 0.2009	747.2
38600 kPa, x2 = 0.3051	751.5
38600 kPa, x2 = 0.417	756.7
38600 kPa, x2 = 0.512	761.4
38600 kPa, x2 = 0.5996	766.9
38600 kPa, x2 = 0.7052	773.9
38600 kPa, x2 = 0.7993	781.4
38600 kPa, x2 = 0.9039	790.7
39620 kPa, x2 = 0	740.6
39620 kPa, x2 = 0.09303	743.6
39620 kPa, x2 = 0.2009	747.8
39620 kPa, x2 = 0.3051	752.1
39620 kPa, x2 = 0.417	757.3
39620 kPa, x2 = 0.512	762
39620 kPa, x2 = 0.5996	767.5
39620 kPa, x2 = 0.7052	774.5
39620 kPa, x2 = 0.9039	791.3
